The numbers were not newly measured in patent publication US6942970B2, “Identifying subjects suitable for topoisomerase II inhibitor treatment” (Zymed Laboratories, Inc., priority 2000, dated 2005), which cites them from elsewhere.

This data set deals with advanced breast cancer. The note with it: first-line chemotherapy, advanced breast cancer patients.

Molecules are shown by their SMILES.

With `COc1cccc2c1C(=O)c1c(O)c3c(c(O)c1C2=O)C[C@@](O)(C(=O)CO)C[C@@H]3O[C@H]1C[C@H](N)[C@@H](O)[C@H](C)O1` [epirubicin], the “response rate (CR+PR)” value is 48%.
